Assay results reported in patent publication US11912693B2, “Compounds for modulating S1P1 activity and methods of using the same” (TREVENA, INC., priority 2017, dated 2024).

How the values were obtained:
[1] = target: human sphingosine-1-phosphate receptor 3 (S1P3) (Homo sapiens (Human), UniProt Q99500); test: Inhibition of cAMP production (HTRF), S1P3 CHO-K1 cells; format: cell-based; conditions: inhibition of cAMP production, hS1P3
Description: (§1) Stable clonal Chinese hamster ovary K1 (CHO-K1) cells co-expressing EA-β-arrestin2 and the human sphingosine-1-phosphate receptor 2 (NM_004230.3, S1P2), human sphingosine-1-phosphate receptor 3 (NM_005226, S1P3) and sphingosine-1-phosphate receptor 5 (NM_001166215.1, S1P5) with a C-terminal Prolink™ tag were purchased from DiscoverX corporation (S1P2: Cat #93-0256C2, S1P3: Cat #93-0217C2, S1P5: Cat #93-0583C2).
(§2) Cell lines were cultured in AssayComplete™ Media 6 (DiscoverX Corporation, Cat #: 920018GF2) at 37° C. and 5% CO2 in a humidified CO2 and temperature-controlled incubator. To begin assay plating, cells were washed with dulbecco's phosphate buffered saline (CellGro, Cat #: 21-031-CV) and lifted from the culturing flask by incubation (37° C., 5 min) with CellStripper (Cellgro, Cat #: 25-056-CI). […] Plated cells were incubated overnight at 37° C. and 5% CO2 in a humidified CO2 and temperature-controlled incubator.
(§3) S1P3 and S1P5 Agonist-promoted G-protein responses were determined by measuring changes in intracellular cAMP using the HTRF® cAMP HiRange kit (CisBio, Cat #: 62AM6PEJ) based on time-resolved fluorescence resonance energy transfer (TR-FRET) technology. […] Following a 30-minute room temperature incubation the components of the cAMP HiRange kit were added as per the manufacturer's instructions. After an hour incubation at room temperature, plates were analyzed by a BMG PheraStar microplate reader.
(§4) The tables below include the efficacy of the compound as compared to a positive control, referred to as “SPAN”. These values are normalized to fingolimod, a known agonist of the sphingosine-1-phosphate 3 and 5 receptor or CYM5520, a known agonist of the sphingosine-1-phosphate 2 receptor. The tables also include potency values (pEC50) for modulating discrete receptor-mediated activities (inhibition of cAMP production or inositol monophosphate accumulation).

[2] = target: sphingosine-1-phosphate receptor 5 (S1P5) (Homo sapiens (Human), UniProt Q9H228); test: Inhibition of cAMP production (HTRF), S1P5 CHO-K1 cells; format: cell-based; conditions: inhibition of cAMP production, hS1P5
Description: as §1, §2, §3, §4

[3] = target: T1, human sphingosine-1-phosphate receptor 1 (S1P1) (Homo sapiens (Human), UniProt P21453); test: Inhibition of cAMP production (HTRF cAMP HiRange), S1P1 CHO-K1 cells; format: cell-based; conditions: for hS1P1 cAMP pEC50: inhibition of cAMP production, S1P1 CHO-K1 cells
Outline: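 CHO-K1 cells stably co-expressing human S1P1 (C-terminal Prolink tag) and EA-β-arrestin2 were grown in AssayComplete Media 6 at 37° C. and 5% CO2, plated, and incubated overnight. Agonist-driven inhibition of intracellular cAMP was read by TR-FRET with the HTRF cAMP HiRange kit on a PheraStar reader. Potency is pEC50, and efficacy (SPAN) is normalized to fingolimod.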
Target sequence in this assay (P21453 whole entry, looked up): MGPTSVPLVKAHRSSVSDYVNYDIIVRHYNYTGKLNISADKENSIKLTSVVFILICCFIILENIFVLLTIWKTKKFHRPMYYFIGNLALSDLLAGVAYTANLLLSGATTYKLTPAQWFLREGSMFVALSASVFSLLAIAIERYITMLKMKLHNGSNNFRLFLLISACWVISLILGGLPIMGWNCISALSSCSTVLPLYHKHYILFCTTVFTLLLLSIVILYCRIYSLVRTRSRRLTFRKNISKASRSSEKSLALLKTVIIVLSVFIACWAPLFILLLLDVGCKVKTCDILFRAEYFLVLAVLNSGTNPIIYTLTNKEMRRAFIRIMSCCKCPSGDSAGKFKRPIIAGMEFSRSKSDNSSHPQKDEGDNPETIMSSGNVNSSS

[4] = test system: peripheral blood lymphocytes; test: Peripheral blood lymphocytes (lymphopenia) in c57bl/6 mice, acute and chronic studies; format: in vivo; conditions: peripheral blood lymphocytes vs vehicle; 6 mg/kg sc, 7 days
Description: Compounds were tested for changes in peripheral blood lymphocytes in c57bl/6 mice. In acute studies, animals (n=5/group) were dosed subcutaneously with test compound at a dose of 3 mg/kg. Animals were sacrificed at specific time points and 500 μl of whole blood was collected in EDTA (K2) Eppendorf tubes. Blood was stored on ice and shipped immediately overnight delivery to Charles River Laboratories for analysis. CRL ran samples through their WBC/differential panel on an Advia 120 instrument. We received peripheral lymphocyte counts (10^3 cells/μl) for each blood sample. Treatment group means were compared to a vehicle treatment group for statistical significance. In chronic studies, animals (n=6-8/group) were dosed subcutaneously with test compound either in a dose response paradigm (highest dose of 3 mg/kg) or in a screening paradigm at 6 mg/kg for seven days. On the seventh day, animals were sacrificed 45 minutes after the final dose. Whole blood was collected and analyzed as described for acute studies. […]

[5] = target: human sphingosine-1-phosphate receptor 2 (S1P2) (Homo sapiens (Human), UniProt O95136); test: Inositol monophosphate production (IP-one TB kit), S1P2 CHO-K1 cells; format: cell-based; conditions: inositol monophosphate accumulation, hS1P2
Description: as §1, §2
S1P2 Agonist-promoted G-protein responses were determined by measuring changes in intracellular inositol monophosphate using the IP-one TB kit (CisBio, Cat #: 62IPAPEJ) based on time-resolved fluorescence resonance energy transfer (TR-FRET) technology. AssayComplete™ Cell Plating 2 Reagent was removed and replaced with 1× IP-one stimulation buffer (as per manufacturer's instructions) along with test or control compounds at the desired concentrations. Following a 60-minute incubation at 37° C. and 5% CO2 in a humidified CO2 and temperature-controlled incubator, the components of the IP-one TB kit were added as per the manufacturer's instructions. After an hour incubation at room temperature, plates were analyzed by a BMG PheraStar microplate reader.
as §4

[6] = target: T1, human sphingosine-1-phosphate receptor 1 (S1P1); test: β-Arrestin2 recruitment assay (PathHunter), S1P1 CHO-K1 cells; format: cell-based; conditions: for hS1P1 B-arrestin2 pEC50: β-arrestin2 recruitment, S1P1 CHO-K1 cells
Outline: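 Enzyme-fragment complementation read-out: agonist-driven β-arrestin2 binding to ProLink-tagged human S1P1 in stable CHO-K1 cells restores β-galactosidase, measured 1 h at room temperature after a 60 min 37° C. compound incubation. Potency as pEC50, efficacy relative to fingolimod (SPAN).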
Target sequence in this assay (P21453 whole entry, looked up): as above
Target sequence in this assay (P32121 whole entry partner, looked up): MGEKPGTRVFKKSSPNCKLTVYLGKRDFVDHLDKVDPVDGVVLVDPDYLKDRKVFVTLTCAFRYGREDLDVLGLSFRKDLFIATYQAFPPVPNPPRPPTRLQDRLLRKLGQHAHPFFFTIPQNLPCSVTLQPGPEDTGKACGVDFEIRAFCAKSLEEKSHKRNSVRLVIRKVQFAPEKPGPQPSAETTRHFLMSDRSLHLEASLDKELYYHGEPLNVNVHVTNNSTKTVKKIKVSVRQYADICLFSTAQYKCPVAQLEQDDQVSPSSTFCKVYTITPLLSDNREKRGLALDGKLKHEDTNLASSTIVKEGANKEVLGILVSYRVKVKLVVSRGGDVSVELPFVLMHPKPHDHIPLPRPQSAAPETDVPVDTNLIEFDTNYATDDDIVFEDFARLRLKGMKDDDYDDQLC

[7] = test system: oxaliplatin induced peripheral neuropathy; test: Reversal of allodynia induced by oxaliplatin in mice (von Frey frequency method); format: in vivo, c57bl/6 mice; conditions: tested 30 min after dosing
Description: Compounds were tested for efficacy in mouse models of chemotherapy induced peripheral neuropathy. […] For these studies […]/6 mice are habituated to the test environment and baseline measurements of pain sensitivity are assessed. To determine mechanical responses, the threshold for responses to punctate mechanical stimuli (mechanical hyperalgesia) was tested according to the frequency method. In brief, the plantar surface of the animal hindpaw was stimulated with a single von Frey monofilament (0.4 g) for approximately 1-2 seconds. If there was a withdrawal response, it was recorded as a positive response. A response was defined as a lifting or shaking of the paw upon stimulation. This was repeated ten times for each mouse. The final measurement for each mouse is the % non-response to stimulation for the ten trials. The % non-response to stimulation is converted to a % MPE. For paclitaxel induced peripheral neuropathy, a series of injections of PAC (6 mg/kg, i.p.) on days 1, 3, 5 and 7 is used to induce peripheral neuropathy. After approximately 14 days from the initiation of PAC injections, animals are re-assessed for mechanical sensitivity. […] On test day animals are dosed with compounds either subcutaneously or orally and tested for mechanical response by the frequency method either 30 min (s.c.) or 60 min (p.o.) after drug administration. Data is presented as a % MPE. For oxaliplatin induced peripheral neuropathy, a series of injections of OXA (4 mg/kg, i.p.) on days 1-5 is used to induce peripheral neuropathy. After approximately 14 days from the initiation of PAC injections, animals are re-assessed for mechanical sensitivity. […] On test day animals are dosed with compounds subcutaneously and tested for mechanical response by the frequency method 30 min after drug administration. Data is presented as a % MPE. One or more of the compounds show reversal of chemotherapeutic induced peripheral neuropathy.

[8] = test system: paclitaxel induced peripheral neuropathy; test: Reversal of allodynia induced by paclitaxel in mice (s.c. or p.o., von Frey frequency method); format: in vivo, c57bl/6 mice; conditions: Mus musculus; for inhibition in vivo at 1 mg/kg: sc, 0.5 h, 1 mg/kg s.c., tested 30 min after dosing, read-out: Screen @ 1 mg/kg sc (% MPE); for inhibition in vivo at 3 mg/kg: po, 1 h, 3 mg/kg p.o., tested 60 min after dosing, read-out: Screen @ 3 mg/kg po (% MPE)
Outline: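 Neuropathy was induced in mice by paclitaxel (6 mg/kg i.p., days 1, 3, 5, 7) or oxaliplatin (4 mg/kg i.p., days 1-5), with re-testing about 14 days later. Compounds were given s.c. (tested at 30 min) or p.o. (tested at 60 min; paclitaxel only). A 0.4 g von Frey filament was applied ten times per paw, and % non-response was converted to % MPE.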

hERG channel = hERG channel (Homo sapiens (Human), UniProt Q12809); test: Automated Qpatch patch-clamp hERG assay
[9] = test system: A2780 human ovarian carcinoma; test: A2780 human ovarian carcinoma xenograft tumor growth delay in athymic nude mice; conditions: monotherapy vs control; paclitaxel i.v. qod×5; ozanimod or Compound 103 p.o. qd to end; 60-day study
Description: Female athymic nude mice (Crl:NU(NCr)-Foxnlnu, Charles River Laboratories) were implanted with A2780 human ovarian carcinoma cells to initiate tumor growth.
Each mouse received 1×10^7 cells (0.1 mL cell suspension) subcutaneously in the right flank, and tumors were monitored as their volumes approached the target range of 100 to 150 mm3. Fourteen days later, designated as Day 1 of the study, mice were sorted into six groups of ten each. […] Tumors were measured twice weekly for the study duration.
Starting on Day 1 of the study, six groups (n=10) of female athymic nude mice with established A2780 tumors were treated according to the following plan. Treatments were administered either by intravenous injection (i.v.) or oral gavage (p.o.) and were adjusted to the body weight of the individual animal. Group 1 received Vehicle 1, i.v., once every other day for five doses (qod×5) and Vehicle 2, p.o., once daily to the end of the study (qd to end), and served as the control group for efficacy analysis. Group 2, the paclitaxel monotherapy group, received paclitaxel i.v., qod×5 plus Vehicle 2, p.o., qd to end. Group 3, the ozanimod monotherapy group, received ozanimod p.o., qd to end plus Vehicle 1, i.v., qod×5. Combination Group 4 received ozanimod p.o., qd to end plus paclitaxel i.v., qod×5.
Animals were monitored individually, and each mouse was euthanized when its tumor reached the endpoint volume of 2000 mm3 or on the final day, whichever came first. The time to endpoint (TTE) was calculated for each mouse. Treatment outcome was determined from percent tumor growth delay (% TGD), defined as the percent increase in median TTE for treated versus control mice, with differences in TTE values between groups deemed statistically significant at P<0.05 using logrank survival analysis. Mice were also monitored for complete regression (CR) and partial regression (PR) responses. An animal with a CR at the end of the study was additionally classified as a tumor-free survivor (TFS). Treatment tolerability was assessed by body weight measurements and frequent observation for clinical signs of treatment-related side effects.

hERG channel, sequence (Q12809 whole entry): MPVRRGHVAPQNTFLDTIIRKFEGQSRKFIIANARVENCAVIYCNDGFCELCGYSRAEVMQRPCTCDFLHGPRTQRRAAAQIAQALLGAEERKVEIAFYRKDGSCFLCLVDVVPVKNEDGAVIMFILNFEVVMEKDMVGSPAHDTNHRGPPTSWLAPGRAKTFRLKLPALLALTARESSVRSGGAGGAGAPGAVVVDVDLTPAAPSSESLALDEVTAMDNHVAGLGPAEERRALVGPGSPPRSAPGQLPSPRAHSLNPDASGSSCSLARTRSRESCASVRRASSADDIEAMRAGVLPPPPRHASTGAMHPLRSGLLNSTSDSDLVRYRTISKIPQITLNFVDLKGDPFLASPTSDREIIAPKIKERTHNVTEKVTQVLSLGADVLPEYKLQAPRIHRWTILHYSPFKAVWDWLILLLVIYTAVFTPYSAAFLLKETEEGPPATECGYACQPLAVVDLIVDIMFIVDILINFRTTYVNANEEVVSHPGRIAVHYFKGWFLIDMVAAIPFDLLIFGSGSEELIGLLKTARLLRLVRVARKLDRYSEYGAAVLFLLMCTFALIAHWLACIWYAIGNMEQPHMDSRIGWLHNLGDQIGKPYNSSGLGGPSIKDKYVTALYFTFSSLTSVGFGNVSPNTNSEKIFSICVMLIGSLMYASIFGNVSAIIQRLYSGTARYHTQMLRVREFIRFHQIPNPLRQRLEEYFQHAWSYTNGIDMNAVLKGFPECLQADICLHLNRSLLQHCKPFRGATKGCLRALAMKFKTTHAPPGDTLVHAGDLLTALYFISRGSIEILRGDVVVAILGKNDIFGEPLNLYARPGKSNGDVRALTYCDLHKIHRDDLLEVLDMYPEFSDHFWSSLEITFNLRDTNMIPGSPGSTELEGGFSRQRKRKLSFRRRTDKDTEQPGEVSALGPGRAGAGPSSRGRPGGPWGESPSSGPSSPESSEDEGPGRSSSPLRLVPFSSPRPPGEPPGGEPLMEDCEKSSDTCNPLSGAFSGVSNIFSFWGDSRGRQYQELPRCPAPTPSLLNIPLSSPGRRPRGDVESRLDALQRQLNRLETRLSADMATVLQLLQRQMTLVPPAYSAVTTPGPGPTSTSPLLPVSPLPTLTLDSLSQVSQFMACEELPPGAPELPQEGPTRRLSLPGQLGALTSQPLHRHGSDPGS
human sphingosine-1-phosphate receptor 3 (S1P3), sequence (Q99500 whole entry): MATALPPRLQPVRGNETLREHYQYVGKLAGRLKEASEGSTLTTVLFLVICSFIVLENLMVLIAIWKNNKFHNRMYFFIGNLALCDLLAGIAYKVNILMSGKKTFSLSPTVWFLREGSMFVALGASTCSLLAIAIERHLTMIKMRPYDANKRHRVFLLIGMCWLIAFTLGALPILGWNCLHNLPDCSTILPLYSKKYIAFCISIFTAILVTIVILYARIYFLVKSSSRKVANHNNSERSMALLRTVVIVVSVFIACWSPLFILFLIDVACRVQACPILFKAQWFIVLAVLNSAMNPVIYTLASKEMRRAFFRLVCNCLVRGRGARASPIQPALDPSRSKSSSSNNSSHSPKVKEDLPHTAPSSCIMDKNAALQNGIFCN
human sphingosine-1-phosphate receptor 2 (S1P2), sequence (O95136 whole entry): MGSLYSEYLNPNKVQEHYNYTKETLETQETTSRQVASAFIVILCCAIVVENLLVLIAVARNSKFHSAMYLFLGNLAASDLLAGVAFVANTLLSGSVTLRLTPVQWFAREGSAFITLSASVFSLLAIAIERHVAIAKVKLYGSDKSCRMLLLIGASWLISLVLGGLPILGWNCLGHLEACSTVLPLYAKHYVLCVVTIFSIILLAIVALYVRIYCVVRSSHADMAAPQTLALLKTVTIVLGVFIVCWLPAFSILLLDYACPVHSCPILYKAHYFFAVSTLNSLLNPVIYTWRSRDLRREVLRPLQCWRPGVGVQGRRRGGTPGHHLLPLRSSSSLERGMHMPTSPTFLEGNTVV
sphingosine-1-phosphate receptor 5 (S1P5), sequence (Q9H228 whole entry): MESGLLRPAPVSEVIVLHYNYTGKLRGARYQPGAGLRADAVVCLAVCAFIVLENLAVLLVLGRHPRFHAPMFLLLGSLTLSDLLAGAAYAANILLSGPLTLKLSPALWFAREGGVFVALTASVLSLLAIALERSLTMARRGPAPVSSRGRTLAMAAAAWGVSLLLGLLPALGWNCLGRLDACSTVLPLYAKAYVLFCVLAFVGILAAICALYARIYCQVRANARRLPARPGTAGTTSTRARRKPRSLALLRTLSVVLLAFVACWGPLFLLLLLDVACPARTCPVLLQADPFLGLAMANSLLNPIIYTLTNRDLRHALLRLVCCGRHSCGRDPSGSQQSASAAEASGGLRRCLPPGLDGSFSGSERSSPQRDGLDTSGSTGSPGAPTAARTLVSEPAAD

SMILES	hS1P1 cAMP pEC50 [3]	Lymphopenia: Effect and Doses, mg/kg, sc [4]	hS1P1 B-arrestin2 pEC50 [6]	inhibition in vivo at 3 mg/kg [8] [%]	IC50 (hERG channel) [µM]	other results
CC(C)n1nnc2cc(-c3nc(-c4cccc5c4OCO5)no3)ccc21 [Compound 32, 3-(benzo[d][1,3]dioxol-4-yl)-5-(1-isopropyl-1H-benzo[d][1,2,3]triazol-5-yl)-1,2,4-oxadiazole]	>6.5	no change: 6 mg/kg, 7 days	>5			hS1P3 cAMP pEC50 [1]: <5.0; hS1P5 cAMP pEC50 [2]: <5.0; hS1P2 IP-one pEC50 [5]: <5.0
COc1ccc(-c2noc(-c3ccc4c(c3)nnn4C(C)C)n2)c(C)c1 [Compound 55, 5-(1-isopropyl-1H-benzo[d][1,2,3]triazol-5-yl)-3-(4-methoxy-2-methylphenyl)-1,2,4-oxadiazole]	>6.5	no change: 6 mg/kg, 7 days	>5			Screen @ 3 mg/kg sc (% MPE) [7]: >50 % MPE; inhibition in vivo at 1 mg/kg [8]: < 50%
Cc1ccsc1-c1noc(-c2ccc3c(c2)nnn3C(C)C)n1 [Compound 169, 5-[3-(3-methylthiophen-2-yl)-1,2,4-oxadiazol-5-yl]-1-(propan-2-yl)-1H-1,2,3-benzotriazole]	>6.5	no change: 6 mg/kg, 7 days	>5			Screen @ 3 mg/kg sc (% MPE) [7]: >50 % MPE; inhibition in vivo at 1 mg/kg [8]: > 50%
N#Cc1cc(-c2nc(-c3ccc4oc(=O)[nH]c4c3)no2)ccc1NCC1CC1 [Compound 423, 2-((cyclopropylmethyl)amino)-5-(3-(2-oxo-2,3-dihydrobenzo[d]oxazol-5-yl)-1,2,4-oxadiazol-5-yl)benzonitrile]	>6.5	no change: 6 mg/kg, 7 days	>5	> 50		hS1P3 cAMP pEC50 [1]: >5.0; hS1P2 IP-one pEC50 [5]: >5.0
N#Cc1cc(-c2nc(-c3ccc4c(c3)NC(=O)C4)no2)ccc1NCC1CC1 [Compound 497, 2-((cyclopropylmethyl)amino)-5-(3-(2-oxoindolin-6-yl)-1,2,4-oxadiazol-5-yl)benzonitrile]	>6.5		>5	< 50	> 10	
CC(F)(F)CNc1ccc(-c2nnc(-c3ccc4[nH]cnc4c3)o2)cc1C#N [Compound 520, 5-[5-(1H-1,3-benzodiazol-5-yl)-1,3,4-oxadiazol-2-yl]-2-[(2,2-difluoropropyl)amino]benzonitrile]	>6.5	no change: 6 mg/kg, 7 days	>5	> 50	> 10	Emax ([3]; CHO-K1, efficacy (SPAN) normalized to fingolimod, read-out: hS1P1 cAMP SPAN): > 75%; Emax ([6]; CHO-K1, efficacy (SPAN) normalized to fingolimod, read-out: hS1P1 B-arrestin2 SPAN): > 75%
CC(C)Nc1ccc(-c2nc(-c3ccc4nonc4c3)no2)cc1C#N [Compound 730, 5-[3-(2,1,3-benzoxadiazol-5-yl)-1,2,4-oxadiazol-5-yl]-2-[(propan-2-yl)amino]benzonitrile]		no change: 6 mg/kg, 7 days		> 50	> 10	
CC(C)Oc1ccc(-c2ncc(-c3cccnc3)cn2)cc1C#N [Compound 738, 2-isopropoxy-5-(5-(pyridin-3-yl)pyrimidin-2-yl)benzonitrile]					> 10	
CC(C)Oc1ccc(-c2ncc(-c3ccccn3)cn2)cc1C#N [Compound 742, 2-isopropoxy-5-(5-(pyridin-2-yl)pyrimidin-2-yl)benzonitrile]					> 10	
CC(C)Nc1ccc(-c2ncc(-c3ccnc(O)c3)cn2)cc1C#N [Compound 743, 5-(5-(2-hydroxypyridin-4-yl)pyrimidin-2-yl)-2-(isopropylamino) benzonitrile]					> 10	
CC(C)Oc1ccc(-c2ncc(-c3ccnc(O)c3)cn2)cc1C#N [Compound 744, 5-(5-(2-hydroxypyridin-4-yl)pyrimidin-2-yl)-2-isopropoxybenzonitrile]					> 10	
CC(=O)O[C@H]1C(=O)[C@@]2(C)[C@H]([C@H](OC(=O)c3ccccc3)[C@]3(O)C[C@H](OC(=O)[C@H](O)[C@@H](NC(=O)c4ccccc4)c4ccccc4)C(C)=C1C3(C)C)[C@]1(OC(C)=O)CO[C@@H]1C[C@@H]2O [Paclitaxel, reference compound]						percent tumor growth delay (% TGD), monotherapy [9]: 128%
CC(C)Oc1ccc(-c2nc(-c3cccc4c3CC[C@@H]4NCCO)no2)cc1C#N [ozanimod, reference compound]						percent tumor growth delay (% TGD), monotherapy [9]: 31%
